ChEMBL document CHEMBL1201862, “PubChem BioAssay data set” (2004)
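96-well plates; 48 h exposure; 5 concentrations. Endpoints by linear interpolation between flanking doses. Not reached: highest tested concentration assigned. At the GI50, growth is halved.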 The source made the active and inactive calls. Cut-off read from the data, not from the text of the source: active = GI50 up to about 1.1 µM and inactive = higher.

What was measured:
Assay in all cases: NCI-60 cell line screen, 48 h
MDA-N = test system: MDA-N
Hs-578T = test system: Hs-578T
SNB-75 = test system: SNB-75
T47D = test system: T47D
MOLT-4 = test system: MOLT-4
NCI-H23 = test system: NCI-H23
A498 = test system: A498
UACC-257 = test system: UACC-257
COLO 205 = test system: COLO 205
786-0 = test system: 786-0
UACC-62 = test system: UACC-62
A549 = test system: A549
HT-29 = test system: HT-29
NCI/ADR-RES = test system: NCI/ADR-RES
NCI-H460 = test system: NCI-H460
MCF7 = test system: MCF7
ACHN = test system: ACHN
SW-620 = test system: SW-620
SNB-19 = test system: SNB-19
KM12 = test system: KM12

Row | Structure (SMILES) | GI50 (MDA-N) | GI50 (Hs-578T) | GI50 (SNB-75) | GI50 (T47D) | GI50 (MOLT-4) | GI50 (NCI-H23) | GI50 (A498) | GI50 (UACC-257) | GI50 (COLO 205) | GI50 (786-0) | GI50 (UACC-62) | GI50 (A549) | GI50 (HT-29) | GI50 (NCI/ADR-RES) | GI50 (NCI-H460) | GI50 (MCF7) | GI50 (ACHN) | GI50 (SW-620) | GI50 (SNB-19) | GI50 (KM12)
1 | Cc1nc2nc3c(ncn3COCCO)c(O)n2c1C(c1ccccc1)(c1ccccc1)c1ccccc1 | 13.5 µM (inactive) | 21.2 µM (inactive) | 12.8 µM (inactive) | 9.27 µM (inactive) | 8.2 µM (inactive) | 4.63 µM (inactive) | 18.3 µM (inactive) | 14.1 µM (inactive) | 14.6 µM (inactive) | 17.1 µM (inactive) | 11.4 µM (inactive) | 18.5 µM (inactive) | 11.7 µM (inactive) | 1.55 µM (inactive) | 15.2 µM (inactive) | 10.2 µM (inactive) | 18 µM (inactive) | 19.5 µM (inactive) | 14.8 µM (inactive) | 12.2 µM (inactive)
2 | N=C1C=CC(=C(c2ccc(N)cc2)c2ccc(N)cc2)C=C1 | 4.84 µM (inactive) | 0.51 µM (active) | 0.519 µM (active) | 0.968 µM (active) | 3.73 µM (inactive) | 3.63 µM (inactive) | 6.97 µM (inactive) | 4.59 µM (inactive) | 1.64 µM (inactive) | 2.36 µM (inactive) | 3.87 µM (inactive) | 3.73 µM (inactive) | 3.77 µM (inactive) | 16.2 µM (inactive) | 3.61 µM (inactive) | 3.11 µM (inactive) | 8.17 µM (inactive) | 3.68 µM (inactive) | 0.532 µM (active) | 3.01 µM (inactive)
3 | CCOc1ccc(Nc2nc(N)nc(N)c2N)cc1 | 3.79 µM (inactive) | 18.2 µM (inactive) | 20.6 µM (inactive) | 21.4 µM (inactive) | 19.8 µM (inactive) | 26.8 µM (inactive) | > 100 µM (inactive) | > 100 µM (inactive) | 27.9 µM (inactive) | 22.3 µM (inactive) | 32.7 µM (inactive) | 45.2 µM (inactive) | 17.8 µM (inactive) | 37 µM (inactive) | 29.1 µM (inactive) | 18.8 µM (inactive) | 38.7 µM (inactive) | 33.1 µM (inactive) | 25.2 µM (inactive) | 23.7 µM (inactive)
4 | CCOc1ccc2nc(NC(=O)/C(CC(=O)CC(C3=C(O)c4ccccc4CC3=O)c3ccccc3)=N\O)sc2c1 (stereo not given) | > 100 µM (inactive) | > 100 µM (inactive) | 52.1 µM (inactive) | > 100 µM (inactive) | > 100 µM (inactive) | > 100 µM (inactive) | > 100 µM (inactive) | > 100 µM (inactive) | > 100 µM (inactive) | > 100 µM (inactive) | > 100 µM (inactive) | > 100 µM (inactive) | > 100 µM (inactive) | > 100 µM (inactive) | > 100 µM (inactive) | > 100 µM (inactive) | > 100 µM (inactive) | > 100 µM (inactive) | > 100 µM (inactive) | > 100 µM (inactive)
5 | COc1ccccc1N1C(=O)CS(=O)(=O)C1c1cccc(Oc2ccccc2)c1 (stereo not given) | 4.3 µM (inactive) | 19.1 µM (inactive) | 20 µM (inactive) | 15.6 µM (inactive) | 13.9 µM (inactive) | 16.7 µM (inactive) | 18.9 µM (inactive) | 11.9 µM (inactive) | 16.1 µM (inactive) | 18.3 µM (inactive) | 12.1 µM (inactive) | 18.9 µM (inactive) | 21.4 µM (inactive) | 16.9 µM (inactive) | 15.2 µM (inactive) | 6.21 µM (inactive) | 19 µM (inactive) | 19.4 µM (inactive) | 18 µM (inactive) | 15.7 µM (inactive)
6 | O=C1CSC(c2ccccc2[N+](=O)[O-])N1c1ccc(-n2c(-c3ccccc3)nc3ccccc3c2=O)cc1 (stereo not given) | > 100 µM (inactive) | 20.8 µM (inactive) | 19.5 µM (inactive) | 23.7 µM (inactive) | 16.6 µM (inactive) | > 100 µM (inactive) | 38.4 µM (inactive) | > 100 µM (inactive) | 99.1 µM (inactive) | 31.4 µM (inactive) | 33.4 µM (inactive) | 63.2 µM (inactive) | 54.3 µM (inactive) | > 100 µM (inactive) | 31.5 µM (inactive) | 32.4 µM (inactive) | 61 µM (inactive) | 64.3 µM (inactive) | 32.7 µM (inactive) | 48.5 µM (inactive)
7 | Cc1cccc2c(NCCN(C)C)c3cccc(C(=O)NCCN(C)C)c3nc12 | 0.265 µM (active) | 0.495 µM (active) | 0.357 µM (active) | 1.81 µM (inactive) | 0.0262 µM (active) | 0.372 µM (active) | 0.918 µM (active) | 0.693 µM (active) | 0.173 µM (active) | 0.0783 µM (active) | 0.135 µM (active) | 0.107 µM (active) | 0.0594 µM (active) | 0.446 µM (active) | < 0.0361 µM (active) | 0.0656 µM (active) | 0.0489 µM (active) | 0.0276 µM (active) | 0.413 µM (active) | 0.0692 µM (active)
8 | CN(C)c1ccc(/C=C2\C[C@H]3[C@@H]4CCc5cc(OCCN6CCCC6)ccc5[C@H]4CC[C@]3(C)[C@H]2O)cc1 | 14.8 µM (inactive) | 21.8 µM (inactive) | 13.8 µM (inactive) | 23.3 µM (inactive) | 9.48 µM (inactive) | 15.1 µM (inactive) | 17.8 µM (inactive) | 6.11 µM (inactive) | 13.5 µM (inactive) | 2.13 µM (inactive) | 20 µM (inactive) | 6.32 µM (inactive) | 3.57 µM (inactive) | 19.3 µM (inactive) | 8.07 µM (inactive) | 7.35 µM (inactive) | 18.1 µM (inactive) | 6.53 µM (inactive) | 18.7 µM (inactive) | 5.71 µM (inactive)
9 | Cc1c(C#N)c2nc3ccccc3n2c(=O)/c1=C/Nc1ccc(Cl)cc1 | > 100 µM (inactive) | 10.8 µM (inactive) | 7.21 µM (inactive) | 37.6 µM (inactive) | 34.9 µM (inactive) | 18.1 µM (inactive) | 15.9 µM (inactive) | > 100 µM (inactive) | 95.1 µM (inactive) | 6.25 µM (inactive) | 15.8 µM (inactive) | 53.1 µM (inactive) | > 100 µM (inactive) | 95.7 µM (inactive) | 29.2 µM (inactive) | 55.2 µM (inactive) | 10.6 µM (inactive) | > 100 µM (inactive) | 11 µM (inactive) | 6.61 µM (inactive)
10 | CC(=O)O[C@@H]1[C@@H](C)[C@]2(CC(c3ccoc3)OC2O)C2CCC3O[C@]3(C)[C@]2(C)[C@@H]1OC(C)=O (stereo not given in full) | 42.1 µM (inactive) | 48.5 µM (inactive) | 46.7 µM (inactive) | 28.5 µM (inactive) | 19.1 µM (inactive) | 37.4 µM (inactive) | 95.1 µM (inactive) | 29.4 µM (inactive) | 20.3 µM (inactive) | 19.2 µM (inactive) | 20.4 µM (inactive) | 47.3 µM (inactive) | 32 µM (inactive) | 40.2 µM (inactive) | 29.7 µM (inactive) | 41.5 µM (inactive) | 38 µM (inactive) | 36.4 µM (inactive) | > 100 µM (inactive) | 23.8 µM (inactive)
11 | COP(=O)(O)/C=C/C(NC(=O)C(Cl)(Cl)Cl)c1ccccc1 (stereo not given) | > 100 µM (inactive) | > 100 µM (inactive) | > 100 µM (inactive) | > 100 µM (inactive) | > 100 µM (inactive) | > 100 µM (inactive) | > 100 µM (inactive) | > 100 µM (inactive) | > 100 µM (inactive) | > 100 µM (inactive) | > 100 µM (inactive) | > 100 µM (inactive) | > 100 µM (inactive) | > 100 µM (inactive) | > 100 µM (inactive) | > 100 µM (inactive) | > 100 µM (inactive) | > 100 µM (inactive) | > 100 µM (inactive) | > 100 µM (inactive)
12 | CSC[C@H](NC(=O)COc1cccc2cnccc12)C(=O)NC(Cc1ccccc1)C(O)C(=O)N1CSC[C@H]1C(=O)NC(C)(C)C (stereo not given in full) | 38.4 µM (inactive) | 89.3 µM (inactive) | 78.9 µM (inactive) | 36.6 µM (inactive) | 17.7 µM (inactive) | 82.4 µM (inactive) | 68.2 µM (inactive) | 29.2 µM (inactive) | 27.5 µM (inactive) | 44.5 µM (inactive) | 57.3 µM (inactive) | 32.4 µM (inactive) | 33.7 µM (inactive) | > 100 µM (inactive) | 38.9 µM (inactive) | 68.2 µM (inactive) | 24.4 µM (inactive) | > 100 µM (inactive) | > 100 µM (inactive) | 53.2 µM (inactive)
13 | Cc1cc(O)c2c(c1)C[C@@H](O)C1=C2C(=O)c2c(O)ccc(OC3CC(O)C(OC4CC(OC5CCC(OC6CC(O)C(OC7CC(OC8CCC(O)C(C)O8)C(O)C(C)O7)C(C)O6)C(C)O5)C(O)C(C)O4)C(C)O3)c2C1=O (stereo not given in full) | 0.155 µM (active) | 0.0311 µM (active) | 0.0573 µM (active) | 0.167 µM (active) | 0.0352 µM (active) | 0.0661 µM (active) | 0.373 µM (active) | 0.11 µM (active) | 0.0488 µM (active) | 0.0644 µM (active) | 0.0702 µM (active) | 0.302 µM (active) | 0.092 µM (active) | 0.0308 µM (active) | 0.238 µM (active) | 0.324 µM (active) | 0.0845 µM (active) | 0.0381 µM (active) | 0.177 µM (active) | 0.0998 µM (active)
